In ChEMBL document CHEMBL4483862, “Open-source discovery of chemical leads for next-generation chemoprotective antimalarials” (2018) one finds IC50 and IC90 data, which are given here for 35 compounds.

This assay relates to Plasmodium berghei. The assay can be described thus: Luciferase/luciferin-expressing antifolate-resistant parasites were used to infect a culture of HepG2 cells that were pre-incubated with compounds. Infected hepatocytes emit light due to the luciferase reaction. Assay results are presented as the percent inhibition of light emission compared to control. […]. The settings on record: sporozoite; for IC90: read-out: LUCIFERASE INFECTION ASSAY - IC90. The format is functional.

Where [1] appears, read: read-out: LUCIFERASE INFECTION ASSAY - IC50.

One may read the IC50 as the concentration at which inhibition is half-maximal. By IC90 is commonly meant the concentration needed for an effect of 90%. In the case of `CCn1nnnc1Sc1nc(C)nc2sc3c(c12)CCC3`, the IC90 is 3.73 µM. Besides, the IC50 (HEPG2TOX_HILL_SLOPE 68.5, HEPG2TOX_R_SQUARED 0.626, PBLUC_HILL_SLOPE 11, PBLUC_R_SQUARED 0.226, read-out: LUCIFERASE INFECTION ASSAY - IC50) stood at 3.05 µM.

Consider `CCCc1oc2c(cc(NS(=O)(=O)c3ccc(Cl)cc3)c3ccccc32)c1C(=O)OCC`, for which the IC90 was greater than 10 µM. The IC50 (PBLUC_HILL_SLOPE 2.19, PBLUC_R_SQUARED 0.549, read-out: LUCIFERASE INFECTION ASSAY - IC50) was found to be 5.77 µM.

On to `CCC(C)(C)c1ccc(Oc2ccc(NC(=O)c3ccc(OC(F)F)c(OC)c3)cc2)cc1`, for which the IC90 was greater than 10 µM. Besides, the IC50 (HEPG2TOX_HILL_SLOPE 5.1, HEPG2TOX_R_SQUARED 0.781, PBLUC_HILL_SLOPE 1.15, PBLUC_R_SQUARED 0.697, read-out: LUCIFERASE INFECTION ASSAY - IC50) was 2.6 µM.

Consider `CN(Cc1nc(N)c2c3c(sc2n1)CCCC3)Cc1cccs1`, for which the IC90 is greater than 10 µM. In addition, the IC50 (PBLUC_HILL_SLOPE 2.01, PBLUC_R_SQUARED 0.418, read-out: LUCIFERASE INFECTION ASSAY - IC50) came out at 4.1 µM.

In the case of `Cc1cccc(-c2cc(NC=O)c3ncc(-c4ccc(S(C)(=O)=O)cc4)n3c2)c1`, the IC90 is greater than 8.14 µM. Further, the IC50 (FFLUC_HILL_SLOPE 0.295, FFLUC_R_SQUARED 0.0341, HEPG2TOX_HILL_SLOPE 11.3, HEPG2TOX_R_SQUARED 0.289, read-out: LUCIFERASE INFECTION ASSAY - IC50) is greater than 8.14 µM.

`CC(=O)N1CCc2cc(C(=O)C(C)OC(=O)/C(=C/c3ccc(F)cc3)c3cccs3)ccc21` (stereo not given): the IC90 is greater than 10 µM. Further, the IC50 under setting [1] was determined as 7.08 µM.

As for `Cn1c(NCc2ccccc2)nc2cnc(Nc3ccc(OC(F)(F)F)cc3)cc21`, the IC90 was found to be 3.61 µM. In addition, the IC50 (FFLUC_HILL_SLOPE 10.9, FFLUC_R_SQUARED 0.015, PBLUC_HILL_SLOPE 2.54, PBLUC_R_SQUARED 0.635, read-out: LUCIFERASE INFECTION ASSAY - IC50) amounted to 1.52 µM.

In the case of `Cc1ccc(/N=c2\scc(-c3cccc(C(F)(F)F)c3)n2/N=C/c2ccc3ncccc3c2)c(C)c1`, the IC90 was greater than 10 µM. Further, under “FFLUC_HILL_SLOPE 2.84, FFLUC_R_SQUARED 0.529, read-out: LUCIFERASE INFECTION ASSAY - IC50”, the IC50 is greater than 10 µM.

Consider `COc1cc(Br)c(/C=C2/C(=O)Nc3cc(Cl)ccc32)cc1O`, for which the IC90 is greater than 10 µM. The IC50 (HEPG2TOX_HILL_SLOPE 7.49, HEPG2TOX_R_SQUARED 0.517, PBLUC_HILL_SLOPE 14.1, PBLUC_R_SQUARED 0.1, read-out: LUCIFERASE INFECTION ASSAY - IC50) was 9.39 µM.

As for `CN(C)c1ccc(-c2ccc3nnc(-c4ccccc4)n3c2)cc1`, the IC90 came to 4.59 µM. The IC50 (HEPG2TOX_HILL_SLOPE 1.89, HEPG2TOX_R_SQUARED 0.955, PBLUC_HILL_SLOPE 2.66, PBLUC_R_SQUARED 0.575, read-out: LUCIFERASE INFECTION ASSAY - IC50) turned out to be 2.01 µM.

In the case of `COc1cc(-c2cc3c(cn2)nc(NCc2cccc(C)c2)n3C)cc(OC)c1OC`, the IC90 was greater than 10 µM. Under setting [1], the IC50 is 8.23 µM.

On to `Cc1c(C)c(C)c(S(=O)(=O)N2CCN(C(C)C(=O)NC3CC3)CC2)c(C)c1C` (stereo not given), for which the IC90 was found to be 9.56 µM. Moreover, the IC50 (PBLUC_HILL_SLOPE 4.98, PBLUC_R_SQUARED 0.411, read-out: LUCIFERASE INFECTION ASSAY - IC50) is 6.15 µM.

As to `COCCc1ccc(-c2csc(NC(=O)Cc3c[nH]c4ccccc34)n2)cc1`, the IC90 is greater than 10 µM. Besides, the IC50 (HEPG2TOX_HILL_SLOPE 5.8, HEPG2TOX_R_SQUARED 0.844, read-out: LUCIFERASE INFECTION ASSAY - IC50) was greater than 10 µM.

As for `O=C(Nc1nc(CN2CCOCC2)cs1)c1ccc(-c2ccc(Cl)cc2)s1`, the IC90 is greater than 10 µM. Moreover, the IC50 (HEPG2TOX_HILL_SLOPE 0.481, HEPG2TOX_R_SQUARED 0.864, PBLUC_HILL_SLOPE 0.848, PBLUC_R_SQUARED 0.477, read-out: LUCIFERASE INFECTION ASSAY - IC50) came to 0.826 µM.

As for `O=c1c2ccccc2[nH]c2ccc(Oc3ncnc4ccsc34)cc12`, the IC90 was 0.558 µM. The IC50 (FFLUC_HILL_SLOPE 10.4, FFLUC_R_SQUARED 0.538, PBLUC_HILL_SLOPE 5.72, PBLUC_R_SQUARED 0.733, read-out: LUCIFERASE INFECTION ASSAY - IC50) is 0.38 µM.

Turning to `Fc1cccc(-n2nnnc2-c2ccc(Cl)c(Cl)c2)c1`, the IC90 is greater than 10.7 µM. For the same compound, the IC50 under setting [1] was greater than 10.7 µM.

For `CN1/C(=C\C(=O)COC(=O)C2Cc3ccccc3CN2C(=O)c2ccccc2)C(C)(C)c2ccccc21` (stereo not given), the IC90 is greater than 10 µM. For the same compound, the IC50 (PBLUC_HILL_SLOPE 1.63, PBLUC_R_SQUARED 0.576, read-out: LUCIFERASE INFECTION ASSAY - IC50) stood at 3.35 µM.

In the case of `Cc1ccc(-n2c(C)cc(C(=O)CN(c3ccccc3)S(=O)(=O)c3ccc(F)cc3)c2C)cc1C`, the IC90 was greater than 10 µM. Further, the IC50 (FFLUC_HILL_SLOPE 9.87, FFLUC_R_SQUARED 0.464, read-out: LUCIFERASE INFECTION ASSAY - IC50) was greater than 10 µM.

In the case of `COc1cc(N(CC(=O)Nc2ccc(Cl)cc2)S(=O)(=O)c2ccc(Cl)cc2)c(Cl)cc1Cl`, the IC90 is greater than 6.18 µM. Also, the IC50 (FFLUC_HILL_SLOPE 12.3, FFLUC_R_SQUARED 0.349, HEPG2TOX_HILL_SLOPE 3.41, HEPG2TOX_R_SQUARED 0.407, PBLUC_HILL_SLOPE 12, PBLUC_R_SQUARED 0.0202, read-out: LUCIFERASE INFECTION ASSAY - IC50) was 5.6 µM.

Regarding `Nc1ncc(-c2cc(C(F)(F)F)cc(C(F)(F)F)c2)cc1-c1cncc2ccccc12`, the IC90 is greater than 7.62 µM. In addition, under setting [1], the IC50 was greater than 7.62 µM.

On to `COC(=O)c1cc(CSc2nc3ccccc3c(=O)n2-c2ccc(OC)cc2)oc1C`, for which the IC90 was greater than 10 µM. The IC50 (PBLUC_HILL_SLOPE 8.32, PBLUC_R_SQUARED 0.0862, read-out: LUCIFERASE INFECTION ASSAY - IC50) was greater than 10 µM.

For `Cn1c(CNC(=O)c2ccc(Cl)cc2)nc2ccccc21`, the IC90 is greater than 11 µM. Also, under setting [1], the IC50 was greater than 11 µM.

`Cn1ccc2cc(-c3cn4c(-c5ccccc5)cnc4cn3)ccc21`: the IC90 came to 2.78 µM. Further, under “HEPG2TOX_HILL_SLOPE 1.3, HEPG2TOX_R_SQUARED 0.937, PBLUC_HILL_SLOPE 1.56, PBLUC_R_SQUARED 0.678, read-out: LUCIFERASE INFECTION ASSAY - IC50”, the IC50 came to 0.679 µM.

On to `NNC(=S)c1cc(Cl)cc(Cl)c1`, for which the 90% effect concentration (IC90) came out at 7.72 µM. Besides, the IC50 (PBLUC_HILL_SLOPE 7.79, PBLUC_R_SQUARED 0.6, read-out: LUCIFERASE INFECTION ASSAY - IC50) amounted to 5.82 µM.

`C=C1c2ccccc2N=C(SC(C)C(=O)Nc2ccccc2)N1C` (stereo not given): the IC90 amounted to 6.88 µM. Also, the IC50 (HEPG2TOX_HILL_SLOPE 0.246, HEPG2TOX_R_SQUARED 0.527, PBLUC_HILL_SLOPE 4.19, PBLUC_R_SQUARED 0.571, read-out: LUCIFERASE INFECTION ASSAY - IC50) turned out to be 4.07 µM.

Regarding `CCC1CCc2sc(C(=O)NCCc3ccccn3)cc2C1` (stereo not given), the IC90 is greater than 10 µM. The IC50 (PBLUC_HILL_SLOPE 5.05, PBLUC_R_SQUARED 0.237, read-out: LUCIFERASE INFECTION ASSAY - IC50) is 7.77 µM.

Take `Cc1sc2nc(-c3cccnc3)nc(Nc3ccc(N(C)C)nc3)c2c1C`: the IC90 was 5.59 µM. Besides, for the setting “PBLUC_HILL_SLOPE 6.08, PBLUC_R_SQUARED 0.68, read-out: LUCIFERASE INFECTION ASSAY - IC50”, the IC50 was found to be 3.9 µM.

Consider `CN(C)c1ccc(-c2cnc3ccc(NCc4ccc5c(c4)OCO5)nn23)cc1`, for which the IC90 came to 3.57 µM. Moreover, the IC50 (HEPG2TOX_HILL_SLOPE 1.81, HEPG2TOX_R_SQUARED 0.969, PBLUC_HILL_SLOPE 2.01, PBLUC_R_SQUARED 0.65, read-out: LUCIFERASE INFECTION ASSAY - IC50) worked out at 1.2 µM.

Consider `Cc1cc(N2CCOCC2)ccc1NC(=O)CC1C=CCC1` (stereo not given), for which the 90% effect concentration (IC90) is greater than 10 µM. For the same compound, under setting [1], the IC50 was greater than 10 µM.

As for `Cc1cn2c(/C=c3\s/c(=C\C(=O)c4ccccc4C)n(C)c3=O)c(C)nc2s1`, the IC90 came out at 0.619 µM. Besides, the IC50 (HEPG2TOX_HILL_SLOPE 2.41, HEPG2TOX_R_SQUARED 0.966, PBLUC_HILL_SLOPE 72.2, PBLUC_R_SQUARED 0.61, read-out: LUCIFERASE INFECTION ASSAY - IC50) worked out at 0.6 µM.

`N=C(NOC(=O)Nc1ccc(OC(F)(F)F)cc1)c1cc(Cl)c(N)c(Cl)c1`: the IC90 is greater than 7.8 µM. Moreover, under setting [1], the IC50 is greater than 7.8 µM.

For the compound `CC(=O)NCCCc1ccc(C(=O)COC(=O)c2ccccc2-n2cnnn2)cc1`, the IC90 was 2.51 µM. The IC50 (PBLUC_HILL_SLOPE 3.15, PBLUC_R_SQUARED 0.801, read-out: LUCIFERASE INFECTION ASSAY - IC50) is 1.25 µM.

With `Cc1nn(-c2ccccc2)c(N2CCCCC2)c1/C=N/Nc1cc(-c2ccccc2)c2ccccc2n1`, the IC90 is greater than 10 µM. For the same compound, under “FFLUC_HILL_SLOPE 1.88, FFLUC_R_SQUARED 0.83, PBLUC_HILL_SLOPE 15.6, PBLUC_R_SQUARED 0.0616, read-out: LUCIFERASE INFECTION ASSAY - IC50”, the IC50 was determined as 8.96 µM.

With `Cc1nc(COc2ccc(F)cc2)sc1C(=O)Nc1nc2c(s1)CC(C)CC2` (stereo not given), the IC90 was greater than 10 µM. Further, the IC50 under setting [1] was greater than 10 µM.

Consider `NC(Cc1ccc(Cl)cc1)c1csc(NC(=O)Nc2ccccc2Cc2ccccc2)n1` (stereo not given), for which the IC90 is greater than 7.13 µM. Besides, the IC50 (PBLUC_HILL_SLOPE 11.7, PBLUC_R_SQUARED 0.713, read-out: LUCIFERASE INFECTION ASSAY - IC50) stood at 6.46 µM.
